Test results as given in paper PMC12333015, “Profiling the Impact of mGlu7/Elfn1 Protein Interactions on the Pharmacology of mGlu7 Allosteric Modulators” (ACS Chemical Neuroscience, 2025).

What was measured:
[1] = test system: pyramidal cell to SST-IN synapses in the prefrontal cortex; assay: Ex vivo whole-cell electrophysiology, eEPSCs recorded from SST-INs in prefrontal cortex slices; assay type: cell-based, mouse; conditions: 30 μM L-AP4 alone, bath applied
Description: Shown in Figure A are representative traces of eEPSCs recorded from SST-INs in response to 5-pulse stimulation with baseline in black, illustrating the characteristic facilitating nature of pyramidal cell (PYR) to SST-IN synapses.
Transgenic mice (both male and female) expressing tdTomato fluorescent protein in SST-INs were used in this study. They were generated by crossing female homozygous SST-Cre (Sst^tm2.1(cre)Zjh/J, Stock #: 013044, Jackson Laboratories) with male homozygous Ai9 mice (B6;Cg-Gt(Rosa)-26Sor^tm9(CAG‑tdTomato)Hze/J, Stock #: 007909, Jackson Laboratories). All animals were group housed with food and water available ad libitum, kept under a 12 h light/dark cycle with lights on from 6:00 AM to 6:00 PM, and were used for experiments during the light phase. All of the experimental procedures were approved by the Vanderbilt University Animal Care and Use committee and followed the guidelines set forth by the Guide for the Care and Use of Laboratory Animals. […] Whole cell recordings were made from visually identified, fluorescence-labeled SST-INs in layer V of PFC slices under the upright microscope. […] Excitatory postsynaptic currents (EPSCs) were recorded from layer V SST-INs at a holding potential of −80 mV and evoked by electrical stimulation (100 μs duration, applied every 15 s) through a concentric bipolar stimulating electrode placed around 100–150 μm from the recorded cell. The holding potential of −80 mV under voltage clamp is closed to the calculated reversal potential of Cl^– and thus the EPSCs recorded in the present studies had minimal GABAA-mediated component. Electrical stimulation applied near the recorded cell in the cortex presumably activates the local neurons preferentially. […] Data were analyzed using Clampfit 10 (Molecular Devices), Excel (Microsoft), and Prism (GraphPad Software), and presented as mean ± SEM. […]

rat mGlu7 = target: T1, rat mGlu7 (Rattus norvegicus, UniProt P35400); assay: Thallium flux assay, mGlu7/GIRK HEK293 cells cocultured with pcDNA3 vector control cells; assay type: cell-based; conditions: L-AP4 pEC50 ± SEM, pcDNA, DMSO vehicle
T1 construct: expressed in transfected cells; host or cells: HEK293A cells stably expressing mGlu7 and GIRK1/2
T1 sequence (P35400 35-915): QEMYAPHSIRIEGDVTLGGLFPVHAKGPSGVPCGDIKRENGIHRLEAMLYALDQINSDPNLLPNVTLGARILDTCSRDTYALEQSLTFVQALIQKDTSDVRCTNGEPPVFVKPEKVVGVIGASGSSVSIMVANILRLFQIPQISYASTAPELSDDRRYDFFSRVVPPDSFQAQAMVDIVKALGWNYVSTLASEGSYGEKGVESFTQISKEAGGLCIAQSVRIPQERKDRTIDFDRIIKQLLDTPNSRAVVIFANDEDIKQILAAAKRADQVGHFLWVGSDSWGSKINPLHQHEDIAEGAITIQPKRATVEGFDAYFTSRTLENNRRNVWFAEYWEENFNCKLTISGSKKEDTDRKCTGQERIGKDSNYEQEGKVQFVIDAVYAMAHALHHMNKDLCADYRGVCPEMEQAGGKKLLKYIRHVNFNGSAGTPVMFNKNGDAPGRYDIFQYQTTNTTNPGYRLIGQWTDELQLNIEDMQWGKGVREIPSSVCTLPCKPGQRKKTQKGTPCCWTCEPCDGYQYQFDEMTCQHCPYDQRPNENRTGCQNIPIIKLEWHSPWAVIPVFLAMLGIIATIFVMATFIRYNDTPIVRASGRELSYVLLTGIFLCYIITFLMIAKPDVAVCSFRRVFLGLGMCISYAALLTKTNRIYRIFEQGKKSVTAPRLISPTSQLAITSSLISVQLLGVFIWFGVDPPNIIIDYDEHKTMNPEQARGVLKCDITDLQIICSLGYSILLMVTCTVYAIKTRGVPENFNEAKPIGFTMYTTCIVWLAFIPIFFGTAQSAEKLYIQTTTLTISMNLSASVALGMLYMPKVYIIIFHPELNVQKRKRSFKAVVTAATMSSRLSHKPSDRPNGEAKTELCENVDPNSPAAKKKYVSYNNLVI
Description: We began our evaluation of mGlu7 ligands in the presence and absence of Elfn1 by using a coculture system as previously described , with several modifications (Figure ). Cells expressing rat mGlu7 and coexpressing G protein inwardly rectifying potassium (GIRK) channels 1 and 2 were cocultured with cells expressing either an empty pcDNA3 vector control or a plasmid containing Elfn1 in the pcDNA3 backbone. We then evaluated the activity of the orthosteric agonist L-AP4 and measured effects on maximal response and pEC50. All responses were normalized to the maximal effect of L-AP4 in the presence of the pcDNA3 control plasmid.
2 Assay design and workflow. (Left panel) Cells expressing rat mGlu7/GIRK (pink) were cocultured with pcDNA3 (blue) or Elfn1 (purple). […] (Right panel) The effect on the concentration–response curve in the presence (purple) or absence (blue) of Elfn1 can be seen by a change in efficacy, potency, and/or basal response.
HEK293A cells stably expressing mouse Elfn1 or pcDNA3 were maintained in growth medium containing 90% Dulbecco’s Modified Eagle Media (DMEM), 10% fetal bovine serum (FBS), 100 units/mL penicillin/streptomycin, 20 mM HEPES, 1 mM sodium pyruvate, 2 mM L-glutamine, 1× nonessential amino acids, and 700 μg/mL G418 sulfate. HEK mGlu7/GIRK cells were maintained in a growth medium with 90% DMEM/F12, 10% dialyzed FBS, 100 units/mL penicillin/streptomycin, 20 mM HEPES, 1 mM sodium pyruvate, 2 mM L-glutamine, 1× nonessential amino acids, 700 μg/mL G418 sulfate, and 600 ng/mL puromycin. All cell culture reagents were purchased from Invitrogen (Carlsbad, CA).
Thallium flux assays were performed as previously described. A mixture of HEK293A mGlu7/GIRK cells and pcDNA3 or Elfn1-expressing HEK293A cells (5000/15,000 cells/20 μL/well for agonist and PAM experiments; 7500/15,000 cells/20 μL/well for NAM experiments) was seeded in 384-well, amine-coated assay plates (Greiner Bio-One, Monroe, NC). Cells were incubated overnight in a humidified 5% CO2 cell culture incubator at 37 °C. […] Following a 1 h incubation at room temperature, the dye loading solution was replaced with 20 μL/well assay buffer and the plates were loaded into a Hamamatsu FDSS 7000 (Bridgewater, NJ). […] Thallium flux data were analyzed by first dividing each point in each wave by the first point in that wave and then subtracting the average of the vehicle control response. The slopes of these vehicle control-subtracted waves were calculated over ten data points beginning 2 s after thallium stimulus addition and fit to a three-parameter logistic equation in GraphPad Prism (La Jolla, CA). In most cases, the final data were normalized to the response of the mGlu7/pcDNA3 with vehicle and 5 mM L-AP4 unless otherwise noted. Potency (pEC50) and maximum responses (E max) induced by compounds were determined using a four-parameter logistical equation in Prism. Basal activity was calculated with data points at the three lowest test concentrations. Maximum activity was calculated with data points at two highest concentrations. All experiments were replicated at least three times in duplicate or triplicate.

For N[C@@H](CCP(=O)(O)O)C(=O)O [L-AP4, L-2-amino-4-phosphonobutyric acid, reference compound], the “effect on eEPSC amplitude” value [1] was “reduced eEPSC amplitude”, the EC50 (rat mGlu7; agonist alone (DMSO row of Table 2)) was 195 µM and the EC50 (rat mGlu7; agonist alone (DMSO row of Table S1)) was 240 µM.
